Measurements published in patent US20240158404A1, “MODULATORS OF ALPHA-1 ANTITRYPSIN” (Vertex Pharmaceuticals Incorporated, priority 2022, published 2024).

Target: T1, AAT (Homo sapiens, UniProt P01009, E366K)
T1 construct: expressed in transfected cells; host or cells: NL20 human bronchial epithelial cells (NL20-SI cell line), with doxycycline added alongside the compounds
Assay: Compound Quality score (potency in AAT functional assay multiplied by unbound clearance)
Details: compound potency (EC50) x unbound clearance; class symbols
From the text: As used herein, the term “Compound Quality” refers to the potency of a compound multiplied (x) by the compound's unbound clearance as measured using the assays described in Example 6.
The terms “unbound clearance” refer to unbound intrinsic clearance (unbound CLint) in hepatocytes—the intrinsic clearance a drug would have in the absence of protein binding. Unbound CLint=CLint,hep/fu,hep, where CLint,hep is intrinsic clearance in hepatocytes and fu,hep is unbound fraction in hepatocytes.
A key consideration for the selection of compounds suitable for clinical development is the projection of human dose as described in Equations 1-3. Two key parameters that comprise the dose equation are the unbound clearance of a compound and the plasma efficacious exposure (also referred to herein as compound potency). Together these parameters are known to one skilled in the art as a measurement of Compound Quality and suitability for advancement into clinical development. Thus, when evaluating AAT modulator compounds, one needs to consider both the potency and unbound clearance parameters (i.e., Compound Quality). The relationship between these two parameters can be challenging to predict.
The values provided in the table below are calculated by multiplying the EC50 of each of the compounds by the result from the clearance assay procedures described in Section C above and rounded to two significant figures. In the table below, the following meanings apply for Compound Quality (i.e., compound potency x unbound clearance) values: “++++” means ≤0.2; “+++” means >0.20 and ≤0.30; “++” means >0.30 and ≤0.40; “+” means >0.40 and ≤0.50.

T1 sequence (P01009 25-418 E366K): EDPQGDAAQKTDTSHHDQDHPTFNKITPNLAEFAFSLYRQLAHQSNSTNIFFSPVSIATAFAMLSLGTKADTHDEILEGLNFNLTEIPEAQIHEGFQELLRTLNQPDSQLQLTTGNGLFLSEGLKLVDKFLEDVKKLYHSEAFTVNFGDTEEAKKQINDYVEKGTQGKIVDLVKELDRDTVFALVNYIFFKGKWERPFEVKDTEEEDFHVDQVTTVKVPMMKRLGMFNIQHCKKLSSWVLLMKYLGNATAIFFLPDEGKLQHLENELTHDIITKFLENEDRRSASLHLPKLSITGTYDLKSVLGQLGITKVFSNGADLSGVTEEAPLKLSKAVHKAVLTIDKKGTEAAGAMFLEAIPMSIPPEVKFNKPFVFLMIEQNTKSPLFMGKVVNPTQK

`CC[C@](O)(COC)c1c(-c2ccc(C(=O)O)cc2)c2c(F)c3[nH]ncc3cc2n1-c1ccc(F)c(F)c1` [Compound 6] was tested. Which “Compound Quality” value did it give?
The value was “++ (“++” means >0.30 and ≤0.40)”.

With `CC[C@](O)(COC)c1c(-c2ccc(C(=O)O)cc2)c2c(F)c3[nH]ncc3cc2n1-c1ccc(F)c(C)c1` [Compound 7] as the compound, how does the “Compound Quality” value read?
The value was “+++ (“+++” means >0.20 and ≤0.30)”.

Which “Compound Quality” value does the source give for `CC[C@](O)(COC)c1c(-c2ccc(C(=O)O)cc2)c2c(F)c3[nH]ncc3cc2n1-c1ccc(F)c(OC)c1` [Compound 8] here?
Its value is “+ (“+” means >0.40 and ≤0.50)”.

For `CCOCC(O)(CC)c1c(-c2ccc(C(=O)O)cc2)c2c(F)c3[nH]ncc3cc2n1-c1ccc(F)c(OC)c1` (stereo not drawn) [Compound 9], which “Compound Quality” value is on record?
The value was “+++ (“+++” means >0.20 and ≤0.30)”.

`[2H]C([2H])([2H])Oc1cc(-n2c([C@@](O)(CC)COC)c(-c3ccc(C(=O)O)cc3)c3c(F)c4[nH]ncc4cc32)ccc1F` [Compound 10] was tested. Which “Compound Quality” value did it give?
Its value is “++ (“++” means >0.30 and ≤0.40)”.

Which “Compound Quality” value does the source give for `CCOCC(O)(CC)c1c(-c2ccc(C(=O)O)cc2)c2c(F)c3[nH]ncc3cc2n1-c1ccc(F)c(F)c1` (stereo not drawn) [Compound 11] here?
Its value is “+++ (“+++” means >0.20 and ≤0.30)”.

`[2H]C([2H])([2H])C([2H])([2H])C(O)(COC)c1c(-c2ccc(C(=O)O)cc2)c2c(F)c3[nH]ncc3cc2n1-c1ccc(F)c(Cl)c1` (stereo not drawn) [Compound 12] was tested. Which “Compound Quality” value did it give?
The value was “+++ (“+++” means >0.20 and ≤0.30)”.

`CCC(O)(COC(C)C)c1c(-c2ccc(C(=O)O)cc2)c2c(F)c3[nH]ncc3cc2n1-c1ccc(F)c(OC)c1` (stereo not drawn) [Compound 13] was tested. Which “Compound Quality” value did it give?
Its value is “+++ (“+++” means >0.20 and ≤0.30)”.

Which “Compound Quality” value does the source give for `CCOCC(O)(c1c(-c2ccc(C(=O)O)cc2)c2c(F)c3[nH]ncc3cc2n1-c1ccc(F)cc1)C1CC1` (stereo not drawn) [Compound 14] here?
Its value is “++ (“++” means >0.30 and ≤0.40)”.

For `CC[C@@](O)(COC)c1c(-c2ccc(C(=O)O)cc2)c2c(F)c3[nH]ncc3cc2n1-c1cccc(F)c1` [Compound 15], which “Compound Quality” value is on record?
Its value is “++ (“++” means >0.30 and ≤0.40)”.

For `CC[C@@](O)(COC)c1c(-c2ccc(C(=O)O)cc2)c2c(F)c3[nH]ncc3cc2n1-c1cc(F)c(F)c(OC)c1` [Compound 16], which “Compound Quality” value is on record?
The value was “++ (“++” means >0.30 and ≤0.40)”.

`CCC(O)(COC)c1c(-c2ccc(C(=O)O)c(C)c2)c2c(F)c3[nH]ncc3cc2n1-c1ccc(F)c(F)c1` (stereo not drawn) [Compound 17] was tested. Which “Compound Quality” value did it give?
The value was “+++ (“+++” means >0.20 and ≤0.30)”.

With `[2H]C([2H])([2H])C([2H])([2H])C(O)(COC)c1c(-c2ccc(C(=O)O)cc2)c2c(F)c3[nH]ncc3cc2n1-c1ccc(F)cc1` (stereo not drawn) [Compound 18] as the compound, how does the “Compound Quality” value read?
The value was “+++ (“+++” means >0.20 and ≤0.30)”.

With `[2H]C([2H])([2H])C([2H])([2H])C(O)(COC)c1c(-c2ccc(C(=O)O)cc2)c2c(F)c3[nH]ncc3cc2n1-c1ccc(F)c(C)c1` (stereo not drawn) [Compound 19] as the compound, how does the “Compound Quality” value read?
Its value is “+++ (“+++” means >0.20 and ≤0.30)”.

How did the “Compound Quality” value turn out when `[2H]C([2H])([2H])C([2H])([2H])C(O)(COC)c1c(-c2ccc(C(=O)O)cc2)c2c(F)c3[nH]ncc3cc2n1-c1ccc(F)c(OC)c1` (stereo not drawn) [Compound 20] was run?
The value was “++ (“++” means >0.30 and ≤0.40)”.

How did the “Compound Quality” value turn out when `[2H]C([2H])([2H])C([2H])([2H])C(O)(COC)c1c(-c2ccc(C(=O)O)cc2)c2c(F)c3[nH]ncc3cc2n1-c1ccc(F)c(F)c1` (stereo not drawn) [Compound 21] was run?
Its value is “++ (“++” means >0.30 and ≤0.40)”.

Which “Compound Quality” value does the source give for `[2H]C([2H])([2H])Oc1cc(-n2c(C3(O)CCCCC3OC)c(-c3ccc(C(=O)O)cc3)c3c(F)c4[nH]ncc4cc32)ccc1F` (stereo not drawn) [Compound 22] here?
Its value is “++++ (“++++” means ≤0.2)”.

Which “Compound Quality” value does the source give for `COC1CCCCC1(O)c1c(-c2ccc(C(=O)O)cc2)c2c(F)c3[nH]ncc3cc2n1-c1ccc(F)c(F)c1` (stereo not drawn) [Compound 23] here?
Its value is “+++ (“+++” means >0.20 and ≤0.30)”.

How did the “Compound Quality” value turn out when `COc1cc(-n2c(C3(O)CCCCC3OC)c(-c3ccc(C(=O)O)cc3)c3c(F)c4[nH]ncc4cc32)ccc1F` (stereo not drawn) [Compound 24] was run?
Its value is “+++ (“+++” means >0.20 and ≤0.30)”.

How did the “Compound Quality” value turn out when `COC1CCCCC1(O)c1c(-c2ccc(C(=O)O)cc2)c2c(F)c3[nH]ncc3cc2n1-c1cccc(F)c1` (stereo not drawn) [Compound 25] was run?
Its value is “+++ (“+++” means >0.20 and ≤0.30)”.

With `COC1CCCCC1(O)c1c(-c2ccc(C(=O)O)cc2)c2c(F)c3[nH]ncc3cc2n1-c1ccc(F)cc1` (stereo not drawn) [Compound 26] as the compound, how does the “Compound Quality” value read?
The value was “++++ (“++++” means ≤0.2)”.

Which “Compound Quality” value does the source give for `COC1CCCC1(O)c1c(-c2ccc(C(=O)O)cc2)c2c(F)c3[nH]ncc3cc2n1-c1ccc(F)cc1` (stereo not drawn) [Compound 27] here?
The value was “++ (“++” means >0.30 and ≤0.40)”.

How did the “Compound Quality” value turn out when `COC1CCCC1(O)c1c(-c2ccc(C(=O)O)cc2)c2c(F)c3[nH]ncc3cc2n1-c1ccc(F)c(F)c1` (stereo not drawn) [Compound 28] was run?
Its value is “+++ (“+++” means >0.20 and ≤0.30)”.

How did the “Compound Quality” value turn out when `[2H]C1([2H])C([2H])([2H])C([2H])([2H])[C@](O)(c2c(-c3ccc(C(=O)O)cc3)c3c(F)c4[nH]ncc4cc3n2-c2ccc(F)cc2)[C@@]([2H])(OC)C1([2H])[2H]` [Compound 29] was run?
The value was “++++ (“++++” means ≤0.2)”.

With `[2H]C1([2H])C([2H])([2H])C([2H])([2H])[C@](O)(c2c(-c3ccc(C(=O)O)cc3)c3c(F)c4[nH]ncc4cc3n2-c2ccc(F)c(OC)c2)[C@@]([2H])(OC)C1([2H])[2H]` [Compound 30] as the compound, how does the “Compound Quality” value read?
The value was “++++ (“++++” means ≤0.2)”.

`[2H]C([2H])([2H])Oc1cc(-n2c([C@@]3(O)C([2H])([2H])C([2H])([2H])C([2H])([2H])C([2H])([2H])[C@]3([2H])OC)c(-c3ccc(C(=O)O)cc3)c3c(F)c4[nH]ncc4cc32)ccc1F` [Compound 31] was tested. Which “Compound Quality” value did it give?
The value was “++ (“++” means >0.30 and ≤0.40)”.

With `[2H]C([2H])([2H])Oc1cc(-n2c(C3(O)C([2H])([2H])C([2H])([2H])C([2H])([2H])C([2H])([2H])C3([2H])OC([2H])([2H])[2H])c(-c3ccc(C(=O)O)cc3)c3c(F)c4[nH]ncc4cc32)ccc1F` (stereo not drawn) [Compound 32] as the compound, how does the “Compound Quality” value read?
Its value is “+++ (“+++” means >0.20 and ≤0.30)”.

How did the “Compound Quality” value turn out when `[2H]C([2H])([2H])OCC(O)(CC)c1c(-c2ccc(C(=O)O)cc2)c2c(F)c3[nH]ncc3cc2n1-c1ccc(F)c(F)c1` (stereo not drawn) [Compound 33] was run?
Its value is “+++ (“+++” means >0.20 and ≤0.30)”.

`[2H]C([2H])([2H])C([2H])([2H])C(O)(COC)c1c(-c2ccc(C(=O)O)cc2)c2c(F)c3[nH]ncc3cc2n1-c1ccc(F)c(F)c1` (stereo not drawn) [Compound 34] was tested. Which “Compound Quality” value did it give?
Its value is “++++ (“++++” means ≤0.2)”.

With `CCC(O)(COC)c1c(-c2ccc(C(=O)O)c(C)c2)c2c(F)c3[nH]ncc3cc2n1-c1ccc(F)cc1` (stereo not drawn) [Compound 35] as the compound, how does the “Compound Quality” value read?
Its value is “++++ (“++++” means ≤0.2)”.

For `CCC(O)(COC)c1c(-c2ccc(C(=O)O)c(C)c2)c2c(F)c3[nH]ncc3cc2n1-c1ccc(F)c(Cl)c1` (stereo not drawn) [Compound 36], which “Compound Quality” value is on record?
The value was “+++ (“+++” means >0.20 and ≤0.30)”.

For `[2H]C([2H])([2H])C([2H])([2H])C(O)(COC)c1c(-c2ccc(C(=O)O)cc2)c2c(F)c3[nH]ncc3cc2n1-c1ccc(F)cc1` (stereo not drawn) [Compound 37], which “Compound Quality” value is on record?
The value was “+++ (“+++” means >0.20 and ≤0.30)”.

With `[2H]C([2H])([2H])C([2H])([2H])C(O)(COC)c1c(-c2ccc(C(=O)O)cc2)c2c(F)c3[nH]ncc3cc2n1-c1ccc(F)c(C)c1` (stereo not drawn) [Compound 38] as the compound, how does the “Compound Quality” value read?
Its value is “+++ (“+++” means >0.20 and ≤0.30)”.

Which “Compound Quality” value does the source give for `CCC(O)(COC)c1c(-c2ccc(C(=O)O)c(C)c2)c2c(F)c3[nH]ncc3cc2n1-c1ccc(F)c(F)c1` (stereo not drawn) [Compound 39] here?
Its value is “+++ (“+++” means >0.20 and ≤0.30)”.

For `CCC(O)(COC)c1c(-c2ccc(C(=O)O)c(C)c2)c2c(F)c3[nH]ncc3cc2n1-c1ccc(F)c(OC)c1` (stereo not drawn) [Compound 40], which “Compound Quality” value is on record?
The value was “+++ (“+++” means >0.20 and ≤0.30)”.

`CCC(O)(CCOC)c1c(-c2ccc(C(=O)O)cc2)c2c(F)c3[nH]ncc3cc2n1-c1ccc(F)cc1` (stereo not drawn) [Compound 41] was tested. Which “Compound Quality” value did it give?
The value was “+ (“+” means >0.40 and ≤0.50)”.

`CC[C@@](O)(COC)c1c(-c2ccc(C(=O)O)cc2)c2c(F)c3[nH]ncc3cc2n1-c1cc(C)c(F)c(F)c1` [Compound 42] was tested. Which “Compound Quality” value did it give?
The value was “++ (“++” means >0.30 and ≤0.40)”.

`COC1CCCC1(O)c1c(-c2ccc(C(=O)O)cc2)c2c(F)c3[nH]ncc3cc2n1-c1ccc(F)c(C)c1` (stereo not drawn) [Compound 43] was tested. Which “Compound Quality” value did it give?
Its value is “+ (“+” means >0.40 and ≤0.50)”.

How did the “Compound Quality” value turn out when `CCC(O)(COC)c1c(-c2ccc(C(=O)O)c(C)c2)c2c(F)c3[nH]ncc3cc2n1-c1cccc(F)c1` (stereo not drawn) [Compound 44] was run?
The value was “+ (“+” means >0.40 and ≤0.50)”.

How did the “Compound Quality” value turn out when `[2H]C([2H])([2H])OCC(O)(CC)c1c(-c2ccc(C(=O)O)cc2)c2c(F)c3[nH]ncc3cc2n1-c1ccc(F)c(OC([2H])([2H])[2H])c1` (stereo not drawn) [Compound 45] was run?
Its value is “+++ (“+++” means >0.20 and ≤0.30)”.

How did the “Compound Quality” value turn out when `[2H]C([2H])([2H])Oc1cc(-n2c(C(O)(COC)C([2H])([2H])C([2H])([2H])[2H])c(-c3ccc(C(=O)O)cc3)c3c(F)c4[nH]ncc4cc32)ccc1F` (stereo not drawn) [Compound 46] was run?
Its value is “+++ (“+++” means >0.20 and ≤0.30)”.

For `[2H]C([2H])([2H])C([2H])([2H])C(O)(COC)c1c(-c2ccc(C(=O)O)cc2)c2c(F)c3[nH]ncc3cc2n1-c1ccc(F)c(OC)c1` (stereo not drawn) [Compound 47], which “Compound Quality” value is on record?
The value was “+++ (“+++” means >0.20 and ≤0.30)”.
